Results on four compounds are retold here after ChEMBL document CHEMBL5316337, “Critical Role of Position 10 Residue in the Polymyxin Antimicrobial Activity” (J Med Chem, 2023).

Holding throughout (type): functional
Experiment [1] relates to Pseudomonas aeruginosa. The experiment in a line: Antibacterial activity against Carbapenem-resistant Pseudomonas aeruginosa FADD1-PA001 clinical isolates assessed as reduction in bacterial growth by broth microdilution method. (In general: Dilution methods test growth across graded concentrations, often in twofold steps.)
The subject of experiment [2] is Pseudomonas aeruginosa. The experiment in a line: Antibacterial activity against Carbapenem-resistant Pseudomonas aeruginosa FADD1-PA022 clinical isolates assessed as reduction in bacterial growth by broth microdilution method.
The subject of experiment [3] is Acinetobacter baumannii. The experiment in a line: Antibacterial activity against Carbapenem-resistant Acinetobacter baumannii FADD1-AB030 clinical isolates assessed as reduction in bacterial growth by broth microdilution method.
Experiment [4] deals with Klebsiella pneumoniae. In words: Antibacterial activity against Carbapenem-resistant Klebsiella pneumoniae FADD1-KP032 clinical isolates assessed as reduction in bacterial growth by broth microdilution method.
Experiment [5] has as its system Klebsiella pneumoniae. The experiment in a line: Antibacterial activity against polymyxin-susceptible Klebsiella pneumoniae ATCC 700721 clinical isolates assessed as reduction in bacterial growth by broth microdilution method.
The test system of experiment [6] is Klebsiella pneumoniae. In words: Antibacterial activity against Carbapenem-resistant Klebsiella pneumoniae FADD1-KP065 clinical isolates assessed as reduction in bacterial growth by broth microdilution method.
The subject of experiment [7] is Enterobacter cloacae. In words: Antibacterial activity against polymyxin-susceptible Enterobacter cloacae FADD1-EC001 clinical isolates assessed as reduction in bacterial growth by broth microdilution method.
Experiment [8] relates to Enterobacter cloacae. In words: Antibacterial activity against polymyxin-susceptible Enterobacter cloacae FADD1-EC006 clinical isolates assessed as reduction in bacterial growth by broth microdilution method.
The subject of experiment [9] is Acinetobacter baumannii. The experiment in a line: Antibacterial activity against Carbapenem-resistant Acinetobacter baumannii FADD1-AB034 clinical isolates assessed as reduction in bacterial growth by broth microdilution method.
In experiment [10] the test system is Acinetobacter baumannii. The experiment in a line: Antibacterial activity against polymyxin-susceptible Acinetobacter baumannii ATCC 19606 clinical isolates assessed as reduction in bacterial growth by broth microdilution method.
The test system of experiment [11] is Pseudomonas aeruginosa. The experiment in a line: Antibacterial activity against polymyxin-susceptible Pseudomonas aeruginosa ATCC 27853 clinical isolates assessed as reduction in bacterial growth by broth microdilution method.
Experiment [12] concerns Klebsiella pneumoniae. In words: Antibacterial activity against Carbapenem-resistant Klebsiella pneumoniae FADD1-KP022 clinical isolates assessed as reduction in bacterial growth by broth microdilution method.
The subject of experiment [13] is Acinetobacter baumannii. In words: Antibacterial activity against polymyxin-susceptible Acinetobacter baumannii ATCC 17978 clinical isolates assessed as reduction in bacterial growth by broth microdilution method.
For experiment [14], the system named is Pseudomonas aeruginosa. The experiment in a line: Antibacterial activity against polymyxin-susceptible Pseudomonas aeruginosa FADD1-PA038 clinical isolates assessed as reduction in bacterial growth by broth microdilution method.
Experiment [15] concerns Klebsiella pneumoniae. The experiment in a line: Antibacterial activity against Carbapenem-resistant Klebsiella pneumoniae BM1 clinical isolates assessed as reduction in bacterial growth by broth microdilution method.
For experiment [16], the system named is Enterobacter cloacae. In words: Antibacterial activity against polymyxin-susceptible Enterobacter cloacae FADD1-EC003 clinical isolates assessed as reduction in bacterial growth by broth microdilution method.
Experiment [17] relates to Pseudomonas aeruginosa. In words: Antibacterial activity against polymyxin-susceptible Pseudomonas aeruginosa FADD1-PA025 clinical isolates assessed as reduction in bacterial growth by broth microdilution method.

The structures appear in SMILES notation. In brackets after ≈: the same amount, converted by molar mass.

The MIC is the smallest concentration in the dilution series that meets the test's criterion for growth inhibition. As for `CC[C@H](C)CCCCC(=O)N[C@@H](CCN)C(=O)N[C@H](C(=O)N[C@@H](CCN)C(=O)N[C@H]1CCNC(=O)[C@H](CCCCN)NC(=O)[C@H](CCN)NC(=O)[C@H](CCN)NC(=O)[C@H](CC(C)C)NC(=O)[C@@H](Cc2ccccc2)NC(=O)[C@H](CCN)NC1=O)[C@@H](C)O`, the MIC is > 32 µg/mL in the experiment on Pseudomonas aeruginosa [1]; 1 µg/mL (≈ 0.813 µM) in the experiment with Pseudomonas aeruginosa [2]; 32 µg/mL (≈ 26 µM) with Acinetobacter baumannii [3]; 32 µg/mL (≈ 26 µM) in the experiment on Klebsiella pneumoniae [4]; > 32 µg/mL with Klebsiella pneumoniae [5]; 4 µg/mL (≈ 3.25 µM) in the experiment with Klebsiella pneumoniae [6]. Further, the MIC with Enterobacter cloacae [7] was 32 µg/mL (≈ 26 µM); in the experiment on Enterobacter cloacae [8], 32 µg/mL (≈ 26 µM); in the experiment with Acinetobacter baumannii [9], 8 µg/mL (≈ 6.5 µM); in the experiment on Acinetobacter baumannii [10] it was 32 µg/mL (≈ 26 µM); in the experiment with Pseudomonas aeruginosa [11], > 32 µg/mL; in the experiment on Klebsiella pneumoniae [12], 2 µg/mL (≈ 1.63 µM). Besides, the MIC was 8 µg/mL (≈ 6.5 µM) in the experiment with Acinetobacter baumannii [13]; > 32 µg/mL with Pseudomonas aeruginosa [14]; > 32 µg/mL in the experiment with Klebsiella pneumoniae [15]; 16 µg/mL (≈ 13 µM) in the experiment with Enterobacter cloacae [16]; > 32 µg/mL in the experiment with Pseudomonas aeruginosa [17].

As for `CC[C@H](C)CCCCC(=O)N[C@@H](CCN)C(=O)N[C@H](C(=O)N[C@@H](CCN)C(=O)N[C@H]1CCNC(=O)[C@H](CCCNC(=N)N)NC(=O)[C@H](CCN)NC(=O)[C@H](CCN)NC(=O)[C@H](CC(C)C)NC(=O)[C@@H](Cc2ccccc2)NC(=O)[C@H](CCN)NC1=O)[C@@H](C)O`, the MIC in the experiment with Pseudomonas aeruginosa [1] was > 32 µg/mL; in the experiment on Pseudomonas aeruginosa [2], 1 µg/mL (≈ 0.795 µM); with Acinetobacter baumannii [3], 8 µg/mL (≈ 6.36 µM); in the experiment with Klebsiella pneumoniae [4] it was 32 µg/mL (≈ 25.4 µM); in the experiment with Klebsiella pneumoniae [5] it was 32 µg/mL (≈ 25.4 µM); with Klebsiella pneumoniae [6], 4 µg/mL (≈ 3.18 µM). Moreover, the MIC was 32 µg/mL (≈ 25.4 µM) in the experiment with Enterobacter cloacae [7]; 32 µg/mL (≈ 25.4 µM) with Enterobacter cloacae [8]; 4 µg/mL (≈ 3.18 µM) in the experiment on Acinetobacter baumannii [9]; 8 µg/mL (≈ 6.36 µM) in the experiment with Acinetobacter baumannii [10]; 4 µg/mL (≈ 3.18 µM) in the experiment with Pseudomonas aeruginosa [11]; 2 µg/mL (≈ 1.59 µM) in the experiment on Klebsiella pneumoniae [12]. For the same compound, the minimal inhibitory concentration (MIC) is 4 µg/mL (≈ 3.18 µM) in the experiment with Acinetobacter baumannii [13]; > 32 µg/mL in the experiment with Pseudomonas aeruginosa [14]; > 32 µg/mL in the experiment with Klebsiella pneumoniae [15]; 16 µg/mL (≈ 12.7 µM) in the experiment on Enterobacter cloacae [16]; 8 µg/mL (≈ 6.36 µM) in the experiment on Pseudomonas aeruginosa [17].

For the compound `CC[C@H](C)CCCCC(=O)N[C@@H](CCN)C(=O)N[C@H](C(=O)N[C@@H](CCN)C(=O)N[C@H]1CCNC(=O)[C@H](CCCN)NC(=O)[C@H](CCN)NC(=O)[C@H](CCN)NC(=O)[C@H](CC(C)C)NC(=O)[C@@H](Cc2ccccc2)NC(=O)[C@H](CCN)NC1=O)[C@@H](C)O`, the MIC is > 32 µg/mL in the experiment on Pseudomonas aeruginosa [1]; > 32 µg/mL in the experiment with Pseudomonas aeruginosa [2]; 16 µg/mL (≈ 13.2 µM) with Acinetobacter baumannii [3]; 32 µg/mL (≈ 26.3 µM) in the experiment with Klebsiella pneumoniae [4]; 32 µg/mL (≈ 26.3 µM) in the experiment on Klebsiella pneumoniae [5]; 4 µg/mL (≈ 3.29 µM) in the experiment with Klebsiella pneumoniae [6]. Besides, the MIC with Enterobacter cloacae [7] is 32 µg/mL (≈ 26.3 µM); with Enterobacter cloacae [8], > 32 µg/mL; with Acinetobacter baumannii [9] it was 8 µg/mL (≈ 6.58 µM); with Acinetobacter baumannii [10], 16 µg/mL (≈ 13.2 µM); in the experiment with Pseudomonas aeruginosa [11] it was > 32 µg/mL; with Klebsiella pneumoniae [12], 4 µg/mL (≈ 3.29 µM). The MIC is 4 µg/mL (≈ 3.29 µM) in the experiment with Acinetobacter baumannii [13]; > 32 µg/mL in the experiment on Pseudomonas aeruginosa [14]; > 32 µg/mL with Klebsiella pneumoniae [15]; 32 µg/mL (≈ 26.3 µM) in the experiment with Enterobacter cloacae [16]; > 32 µg/mL in the experiment on Pseudomonas aeruginosa [17].

As to `CC[C@H](C)CCCCC(=O)N[C@@H](CCN)C(=O)N[C@H](C(=O)N[C@@H](CCN)C(=O)N[C@H]1CCNC(=O)[C@H](Cc2c[nH]cn2)NC(=O)[C@H](CCN)NC(=O)[C@H](CCN)NC(=O)[C@H](CC(C)C)NC(=O)[C@@H](Cc2ccccc2)NC(=O)[C@H](CCN)NC1=O)[C@@H](C)O`, the MIC in the experiment on Pseudomonas aeruginosa [1] is 32 µg/mL (≈ 25.8 µM); with Pseudomonas aeruginosa [2], 1 µg/mL (≈ 0.807 µM); with Acinetobacter baumannii [3], > 32 µg/mL; in the experiment on Klebsiella pneumoniae [4], 16 µg/mL (≈ 12.9 µM); in the experiment on Klebsiella pneumoniae [5], 32 µg/mL (≈ 25.8 µM); in the experiment with Klebsiella pneumoniae [6] it was 16 µg/mL (≈ 12.9 µM). For the same compound, the MIC in the experiment with Enterobacter cloacae [7] is 32 µg/mL (≈ 25.8 µM); with Enterobacter cloacae [8], > 32 µg/mL; with Acinetobacter baumannii [9], 16 µg/mL (≈ 12.9 µM); with Acinetobacter baumannii [10] it was 16 µg/mL (≈ 12.9 µM); in the experiment with Pseudomonas aeruginosa [11], 8 µg/mL (≈ 6.45 µM); with Klebsiella pneumoniae [12] it was 8 µg/mL (≈ 6.45 µM). Besides, the MIC is 4 µg/mL (≈ 3.23 µM) with Acinetobacter baumannii [13]; 16 µg/mL (≈ 12.9 µM) in the experiment on Pseudomonas aeruginosa [14]; > 32 µg/mL in the experiment on Klebsiella pneumoniae [15]; 16 µg/mL (≈ 12.9 µM) with Enterobacter cloacae [16]; 8 µg/mL (≈ 6.45 µM) in the experiment on Pseudomonas aeruginosa [17].
